According to patent US8912227B1, “Bicyclic pyrrole derivatives useful as agonists of GPR120” (Janssen Pharmaceutica NV, priority 2014, dated 2014):

How the values were obtained:
[1] = target: T1, long form of human GPR120 (Homo sapiens, UniProt Q5NUL3); assay: Human GPR120 DiscoveRx PathHunter β-Arrestin assay, Procedure β-arrestin A; assay type: cell-based; conditions: PathHunter CHO-K1 GPR120 β-Arrestin cell line, 3000 cells per well
T1 construct: host or cells: PathHunter CHO-K1 GPR120 β-Arrestin Cell Line
Procedure, shortened: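 PathHunter CHO-K1 β-arrestin cells (NM_181745 construct) were plated at 3000/well overnight, then held 60 min in HBSS/20 mM HEPES/0.1% BSA, pH 7.4. Compounds (dilution series 25–0.012 µM before addition) were added for 90 min at 37 °C, followed by 60 min RT luminescence detection. EC50 was fitted from % of positive control with Hill slope fixed at 1.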

[2] = target: T2, short form of the GPR120 receptor (Homo sapiens, UniProt Q5NUL3); assay: Human GPR120 DiscoveRx PathHunter β-Arrestin assay, Procedure β-arrestin B; assay type: cell-based; conditions: PathHunter CHO-K1 GPR120S β-Arrestin cell line, 5000 cells/well
T2 construct: host or cells: PathHunter CHO-K1 GPR120S β-Arrestin Cell Line
Description: The binding of an agonist (medium/long chain fatty acids or small molecule agonists) to the G-protein-coupled receptor GPR120 activates phospholipase C, leading to release of intracellular Ca^+2 through the generation of inositol 1,4,5-trisphosphate (InsP3 or IP3). GPR120 activation can also trigger intracellular signaling via recruitment of β-Arrestin. In the present method, agonist-induced activation of the human GPR120 receptor is monitored through the use of PathHunter CHO-K1 GPR120 β-Arrestin Cell Line engineered by DiscoveRx, as detailed below. The cell lines are designed to co-express both the ProLink/Enzyme Donor (PK)-tagged GPCR and the Enzyme […] (EA)-tagged Beta-Arrestin fusion proteins. Upon GPR120 receptor stimulation/activation, the EA-tagged β-Arrestin portion is translocated to the tagged receptor, where the two enzyme fragments are brought within close proximity. Under these conditions, these fragments can interact and form an active Beta-gal enzyme complex through Enzyme Fragment Complementation (EFC). This active Beta-gal complex can enzymatically hydrolyse the substrate to produce a detectable light signal; therefore, activation as a function of agonist concentration can be expressed as an EC50 value to determine relative compound activities. This in vitro assay therefore serves to assess compound agonist activity of the GPR120.
In Procedure β-arrestin B the cells used were PathHunter CHO-K1 GPR120S β-Arrestin Cell Line, expressing the short form of the GPR120 receptor (Accession #NM_181745), with 5000 cells/well.
The selected CHO-K1 GPR120 β-Arrestin cells were cultured in Ham's F12 media supplemented with 10% fetal bovine serum (FBS), 1% Glutamine, 1×p/s, 800 μg/ml G418 and 300 μg/ml Hygromycin B (for selection). Cell stocks were maintained and grown in a sub-confluent state using standard cell culture procedures. The day before the experiment, the cells were harvested with non-enzymatic cell dissociation buffer and re-suspended in complete growth media at the desired concentration. A Corning 384-plate was then seeded with the proper number of cells in a volume of 25 μL, per well. The seeded plates were incubated overnight at 37° C.
On the day of the experiment, the Assay Buffer containing (a) HBSS with Ca^++ and Mg^++, (b) 20 mM HEPES, and (c) 0.1% BSA stabilizer (pH 7.4) was prepared. The growth medium was gently removed from the cell plates and 20 μL of Assay Buffer added to each well. The plate was then incubated at 37° C. for 60 mins. Test compounds were serially diluted in Assay Buffer to desired concentrations (more particularly, to one or more of the following μM concentrations: 25 μM, 12.5 μM, 6.25 μM, 3.125 μM, 1.562 μM, 0.781 μM, 0.391 μM, 0.195 μM, 0.098 μM, 0.049 μM, 0.024 μM, 0.012 μM). Five μl of compound dilution was then added to each well and the plate incubated at 37° C. for 90 mins. The detection reagents were prepared according to the manufacture's instruction. Twelve μL of the detection reagents were added to each well and the plate incubated at room temperature for 60 mins.
The plates were read on an EnVision instrument, using Protocol name: Luminescence, Plate type: 384 Costar, Measurement height: 3 mm, Measurement time: 1 s, Aperture: 384 Plate aperture. The % activity relative to the positive control was calculated using the following equation:
The % Activity values were plotted versus the concentration of test compound and fitted to a sigmoidal dose-response curve with a Hill slope=1 (fixed value) using nonlinear regression with GraphPad Prism 5.0 to calculate the EC50 values. The Fitting Equation was: Y=Bottom+(Top−Bottom)/(1+10^((LogEC50−X)*HillSlope)), where X is the log of the concentration and Y is the response.

T2 sequence (Q5NUL3 whole entry): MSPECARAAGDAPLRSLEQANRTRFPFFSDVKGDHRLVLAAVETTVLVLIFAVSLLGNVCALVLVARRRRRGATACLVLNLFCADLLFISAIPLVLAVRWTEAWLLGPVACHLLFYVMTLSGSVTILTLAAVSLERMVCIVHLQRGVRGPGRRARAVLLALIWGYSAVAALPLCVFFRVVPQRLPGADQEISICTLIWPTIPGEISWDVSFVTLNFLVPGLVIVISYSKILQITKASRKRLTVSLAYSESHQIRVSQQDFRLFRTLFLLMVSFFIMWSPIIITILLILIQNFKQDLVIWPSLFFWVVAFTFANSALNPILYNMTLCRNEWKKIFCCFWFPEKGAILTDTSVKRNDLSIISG
T2 sequence (P32121 whole entry partner): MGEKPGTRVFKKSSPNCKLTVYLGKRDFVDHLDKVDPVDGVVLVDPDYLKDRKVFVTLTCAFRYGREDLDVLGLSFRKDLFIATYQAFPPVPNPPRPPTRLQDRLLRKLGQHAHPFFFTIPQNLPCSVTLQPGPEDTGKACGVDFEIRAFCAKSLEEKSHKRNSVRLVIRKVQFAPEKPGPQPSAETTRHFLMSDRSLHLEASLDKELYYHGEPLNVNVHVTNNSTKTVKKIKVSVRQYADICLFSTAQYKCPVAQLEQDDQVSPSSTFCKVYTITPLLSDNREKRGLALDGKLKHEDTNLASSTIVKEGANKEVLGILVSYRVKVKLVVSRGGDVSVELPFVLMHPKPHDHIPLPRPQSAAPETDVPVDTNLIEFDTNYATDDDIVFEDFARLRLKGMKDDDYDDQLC
T1 sequence (Q5NUL3 1-377 isoform Q5NUL3-1): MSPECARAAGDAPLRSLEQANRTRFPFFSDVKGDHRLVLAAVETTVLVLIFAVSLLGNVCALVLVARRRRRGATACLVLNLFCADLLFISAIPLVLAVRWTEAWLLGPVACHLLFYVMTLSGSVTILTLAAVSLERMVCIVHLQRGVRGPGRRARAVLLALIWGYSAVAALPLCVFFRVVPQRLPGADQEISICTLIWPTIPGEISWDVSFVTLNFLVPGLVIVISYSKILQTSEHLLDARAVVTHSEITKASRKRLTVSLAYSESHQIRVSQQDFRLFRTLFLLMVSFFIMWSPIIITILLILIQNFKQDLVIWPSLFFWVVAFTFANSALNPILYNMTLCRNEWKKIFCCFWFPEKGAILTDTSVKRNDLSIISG
T1 sequence (P32121 whole entry partner): as the sequence (P32121 whole entry partner) above

## Cc1c(CCC(=O)O)ccc(OCc2cccn2-c2ccc(Cl)cc2)c1C [Compound 1, 3-(4-{[1-(4-Chlorophenyl)-1H-pyrrol-2-yl]methoxy}-2,3-dimethylphenyl)propanoic acid]
[1]
  EC50: 1040 nM

## OCCCc1ccc(OCc2c(C(F)(F)F)ccn2-c2ccc(Cl)cc2)c(F)c1F [Compound 29, 3-(4-{[1-(4-Chlorophenyl)-3-(trifluoromethyl)-1H-pyrrol-2-yl]methoxy}-2,3-difluorophenyl)propan-1-ol]
[2]
  EC50: 63 nM
[1]
  EC50: 53 nM

## CCc1ccc(-n2ccc(C(F)(F)F)c2COc2ccc(CCC(=O)O)c(F)c2F)cc1 [Compound 34, 3-(4-[[1-(4-ethylphenyl)-3-(trifluoromethyl)-1H-pyrrol-2-yl]methoxy]-2,3-difluorophenyl)propanoic acid]
[2]
  EC50: 179 nM
[1]
  EC50: 171 nM

## Cc1ccc(-n2ccc(C(F)(F)F)c2COc2c(F)cc(CCC(=O)O)cc2F)cc1 [Compound 39, 3-(3,5-difluoro-4-[[1-(4-methylphenyl)-3-(trifluoromethyl)-1H-pyrrol-2-yl]methoxy]phenyl)propanoic acid]
[2]
  EC50: 219 nM
[1]
  EC50: 264 nM
